Reference: ChEMBL document CHEMBL1159183, “Non-peptide itam mimics as ZAP-70 antagonists” (Bioorg Med Chem Lett, 1997)

Experiments:
Jurkat = assay: Cellular activity was measured by an IL-2 luciferase reporter gene assay on a Jurkat human T cell line activated by anti-CD28 and anti-TCR antibodies; format: functional, cell-based
[1] = molecular target: T1, Tyrosine-protein kinase ZAP-70 (Homo sapiens, UniProt P43403); assay: Antagonistic activity against SH2 domain of Zeta-chain (TCR) associated protein kinase, ZAP-70; format: functional
T1 sequence (P43403 whole entry): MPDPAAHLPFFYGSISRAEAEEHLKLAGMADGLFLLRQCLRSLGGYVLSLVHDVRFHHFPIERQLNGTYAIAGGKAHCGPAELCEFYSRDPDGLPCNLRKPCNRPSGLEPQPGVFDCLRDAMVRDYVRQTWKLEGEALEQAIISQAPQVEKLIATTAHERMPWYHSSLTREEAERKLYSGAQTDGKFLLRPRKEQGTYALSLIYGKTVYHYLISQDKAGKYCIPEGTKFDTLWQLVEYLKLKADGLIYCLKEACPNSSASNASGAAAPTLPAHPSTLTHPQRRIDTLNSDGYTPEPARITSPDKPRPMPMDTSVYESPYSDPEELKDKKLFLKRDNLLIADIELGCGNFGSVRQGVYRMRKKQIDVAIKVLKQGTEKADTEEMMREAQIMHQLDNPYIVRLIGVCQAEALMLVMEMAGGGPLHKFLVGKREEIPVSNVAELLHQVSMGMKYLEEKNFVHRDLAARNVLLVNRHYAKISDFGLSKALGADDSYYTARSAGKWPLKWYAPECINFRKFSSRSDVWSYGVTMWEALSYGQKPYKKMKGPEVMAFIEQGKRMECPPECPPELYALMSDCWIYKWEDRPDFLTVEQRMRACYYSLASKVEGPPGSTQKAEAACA

| SMILES | IC50 (Jurkat) | IC50 [1] |
| --- | --- | --- |
| CCCCCC(=O)N(Cc1ccc(CP(=O)(O)O)cc1)[C@H]1CC[C@H]2[C@@H]3CCc4cc(OCCCOc5ccc6c(c5)CC[C@@H]5[C@@H]6CC[C@]6(C)[C@@H](N(Cc7ccc(CP(=O)(O)O)cc7)C(=O)CCCCC)CC[C@@H]56)ccc4[C@H]3CC[C@]12C | 26.5 µM | 0.32 µM |
| CCCCCC(=O)N(Cc1ccc(CP(=O)(O)O)cc1)[C@H]1CC[C@H]2[C@@H]3CCc4cc(OCCC)ccc4[C@H]3CC[C@]12C | 3.6 µM | 3.2 µM |
| CCCCCC(=O)N(Cc1ccc(C(F)(F)P(=O)(O)O)cc1)[C@H]1CC[C@H]2[C@@H]3CCc4cc(OCCC)ccc4[C@H]3CC[C@]12C | 0.9 µM | 1.9 µM |
| CCCCCC(=O)N(Cc1ccc(C(F)(F)P(=O)(O)O)cc1)[C@H]1CC[C@H]2[C@@H]3CCc4cc(OCCCOc5ccc6c(c5)CC[C@@H]5[C@@H]6CC[C@]6(C)[C@@H](N(Cc7ccc(C(F)(F)P(=O)(O)O)cc7)C(=O)CCCCC)CC[C@@H]56)ccc4[C@H]3CC[C@]12C | 1.9 µM | 0.25 µM |
